This passage reports MIC and CC50 results from patent US8044204B2, “8-methoxy-9H-isothiazolo[5,4-b]quinoline-3,4-diones and related compounds as anti-infective agents” (Achillion Pharmaceuticals, Inc., priority 2005, dated 2011).

Common to all, as to format: cell-based
One data set relates to MRSA strain ATCC 700699. Put plainly: Minimum Inhibitory Concentration (MIC) assay, Methicillin Resistant S. Aureus. The conditions noted are these: Staphylococcus aureus.
Data set [1] in a line: Cell viability staining with Alamar Blue (cytotoxicity CC50), Hep2. To be noted: human. Here is the method:
To determine whether the microcidal effect observed against S. aureus and E. coli is specific to bacterial cells, compounds are screened for cell viability effects on several human cell types.
Optimal cell density is first determined by plating cells in a 96-well plate standard sterile tissue culture plates in 100 μl media, 10% FBS at six cell densities from 500 cells/well to 15,000 cells/well. A cell free well containing only media is used as a control. Cells are incubated at 37° C. in a 5% CO2 incubator for 24 hours. 10% culture volume (10 ul) of Alamar Blue (Biosource, DAL1100, 100 mL) is then added. Cells are incubated at 37° C. in a 5% CO2 incubator and read in a Victor V plate reader, 544 nm excitation, 590 nm emission, at 3, 4, and 24 hours after the addition of Alamar Blue. The cell number vs. change in fluorescence is plotted to determine linearity of signal vs. cell number. The optimal density varies between 500-15,000 cells/well depending on the specific cell type. The optimal density is selected based on the highest number of cells that is still in the linear response range.
Determination of Compound Cytotoxicity
Cells are plated at optimal cell density in a standard sterile tissue culture 96 well plate, and incubated at 37° C. O/N in a 5% CO2 incubator. 12 to 48 hours post-plating media is removed. The cells are washed 1 or 2 times with 1×PBS and replaced with fresh media containing the test compound in 1% DMSO. 24 to 72 hours after addition of compound, the media is removed, and the cells washed 1 to 2 times with 1×PBS. Fresh media containing 1/10 volume of Alamar Blue is then added. Plates are incubated 4 hours at 37° C. in a 5% CO2 incubator and read in a Victor V plate reader, 544 nm excitation, 590 nm emission.
Compounds are diluted to 20 micromolar in 1% DMSO and media and screened in duplicate to obtain single concentration cytotoxicity data. Eight concentration points from 0.78 micromolar to 100 micromolar, run in duplicate, are used to determine cyclotoxicity CC50 values. Cells with 1% DMSO and media are used as a negative control, compounds having a known CC50 against a particular cell type are used as positive controls.
The change in fluorescence vs. concentration of test compound is plotted to determine the cytotoxicity of the compound.
Sample media conditions, optimal plating densities, and positive control compounds for two cell types screened are presented in Table III.
For orientation: The colour change of resazurin is a common sign of viable cells or microbes.

A further data set deals with E. coli ATCC 25922. Put plainly: Minimum Inhibitory Concentration (MIC) assay, E. coli. The conditions noted are these: Escherichia coli, ATCC25922; broth microdilution; read-out: MIC against E. coli. The method, boiled down: (§1)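 NCCLS broth microdilution in Mueller-Hinton II broth, two-fold dilutions giving final 0.125–128 μg/mL, inoculum ~1×10^6 cfu/mL. Incubated in ambient air at 37 °C for 18–24 h. MIC read as lowest concentration with no visible growth.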

The test system of another data set is S. aureus ATCC 29213. Put plainly: Minimum Inhibitory Concentration (MIC) assay, S. aureus. To be noted: Staphylococcus aureus, ATCC29213; broth microdilution; read-out: MIC against S. Aureus. The method, boiled down: as §1
In general terms: Broth dilution looks for growth in wells or tubes with falling amounts of substance.

The nature of a further data set: in vitro. The conditions noted are these: Chinese hamster.
[2] abbreviates: R6 = F, R8 = Methoxy compounds, MRSA ATCC 700699, read-out: MRSA MIC.
Where [3] appears, read: Hep2 cells (ATCC CCL-23), R6 = F, R8 = Methoxy compounds, Hep2 ATCC CCL-23, read-out: hep2 CC50.
The mark [4] stands for this setting: broth microdilution, read-out: MIC against Methicillin Resistant S. Aureus.
Setting [5] is: R6 = F, R8 = H compounds, MRSA ATCC 700699, read-out: MRSA MIC.
The mark [6] stands for this setting: Hep2 cells (ATCC CCL-23), R6 = F, R8 = H compounds, Hep2 ATCC CCL-23, read-out: hep2 CC50.

The term MIC denotes the smallest concentration in the dilution series that meets the test's criterion for growth inhibition. In general, CC50 refers to the concentration at which the toxic effect on the cells reaches its halfway point.

Converted amounts (≈) assume the structure as drawn. Counter-ions that a name gives are not always drawn. Like-named read-outs stand apart in the source and are kept apart here. Some results are limits rather than exact numbers.

On to `COc1c(N2CC[C@H](C(C)(C)N)C2)c(F)cc2c(=O)c3c(=O)[nH]sc3n(C3CC3)c12` [Compound 58, (S)-7-(3-(2-aminopropan-2-yl)pyrrolidin-1-yl)-9-cyclopropyl-6-fluoro-8-methoxyiso-thiazolo[5,4-b]quinoline-3,4(2H,9H)-dione], for which the MIC is 1.5 µg/mL (≈ 3.47 µM) in the data set on MRSA strain ATCC 700699 (setting [2]), at most 1 µg/mL with E. coli ATCC 25922 and at most 1 µg/mL in the data set with S. aureus ATCC 29213. The CC50 in data set [1] (setting [3]) worked out at 61 µM.
With `COc1c(N2CC3CCCNC3C2)c(F)cc2c(=O)c3c(=O)[nH]sc3n(C3CC3)c12` (stereo not shown) [Compound 45, 9-cyclopropyl-6-fluoro-8-methoxy-7-(octahydro-pyrrolo[3,4-b]pyridin-6-yl)isothia-zolo[5,4-b]quinoline-3,4(2H,9H)-dione, hydrochloride], the MIC with MRSA strain ATCC 700699 (read-out: MRSA MIC) was 2 µg/mL; in the data set with E. coli ATCC 25922, at most 1 µg/mL; in the data set with S. aureus ATCC 29213 it was at most 1 µg/mL. The CC50 in data set [1] (setting [3]) stood at 93 µM.
As for `COc1c(N2CC[C@H](CN)C2)c(F)cc2c(=O)c3c(=O)[nH]sc3n(C3CC3)c12` [Compound 67, (R)-7-(3-(aminomethyl)-pyrrolidin-1-yl)-9-cyclopropyl-6-fluoro-8-methoxyiso-thiazolo[5,4-b]quinoline-3,4(2H,9H)-dione], the MIC was 0.25 µg/mL (≈ 0.618 µM) with MRSA strain ATCC 700699 (setting [2]), at most 1 µg/mL in the data set with MRSA strain ATCC 700699 (setting [4]), at most 1 µg/mL in the data set on E. coli ATCC 25922 and at most 1 µg/mL with S. aureus ATCC 29213. In data set [1] (setting [3]), the CC50 worked out at 11 µM.
Regarding `COc1c(N2CC[C@@H](CN)C2)c(F)cc2c(=O)c3c(=O)[nH]sc3n(C3CC3)c12` [Compound 63, (S)-7-(3-(aminomethyl)-pyrrolidin-1-yl)-9-cyclopropyl-6-fluoro-8-methoxyiso-thiazolo[5,4-b]quinoline-3,4(2H,9H)-dione], the MIC in the data set on MRSA strain ATCC 700699 (setting [2]) is 0.42 µg/mL (≈ 1.04 µM); in the data set with MRSA strain ATCC 700699 (setting [4]), at most 1 µg/mL; in the data set with E. coli ATCC 25922 it was at most 1 µg/mL; in the data set with S. aureus ATCC 29213 it was at most 1 µg/mL. The CC50 in data set [1] (setting [3]) came out at 11 µM.
For the molecule `NC[C@H]1CCN(c2cc3c(cc2F)c(=O)c2c(=O)[nH]sc2n3C2CC2)C1` [Compound 68, (R)-7-(3-(aminomethyl)-pyrrolidin-1-yl)-9-cyclopropyl-6-fluoroiso-thiazolo[5,4-b]quinoline-3,4(2H,9H)-dione], the MIC with MRSA strain ATCC 700699 (setting [5]) is 1 µg/mL (≈ 2.67 µM); with E. coli ATCC 25922 it was at most 1 µg/mL; in the data set with S. aureus ATCC 29213 it was at most 1 µg/mL. The CC50 in data set [1] (setting [6]) turned out to be 2.3 µM.
Turning to `CC(C)(C)c1ccc(C(O)CCCN2CCC(C(O)(c3ccccc3)c3ccccc3)CC2)cc1` (stereo not shown) [Terfenadine, reference compound], the CC50 in the data set “in vitro” lay in the range of 4.3 to 6.5 µM; in data set [1], 3 to 5 µM.
`CNC(C)(C)[C@@H]1CCN(c2cc3c(cc2F)c(=O)c2c(=O)[nH]sc2n3C2CC2)C1` [Compound 80, (R)-9-cyclo-propyl-6-fluoro-7-(3-(2-(methylamino)propan-2-yl)-pyrrolidin-1-yl)isothia-zolo[5,4-b]quinoline-3,4(2H,9H)-dione]: the MIC is 2 µg/mL (≈ 4.8 µM) in the data set on MRSA strain ATCC 700699 (setting [5]), at most 1 µg/mL with E. coli ATCC 25922 and at most 1 µg/mL with S. aureus ATCC 29213. In data set [1] (setting [6]), the CC50 worked out at 0.57 µM.
